According to patent USRE50715E1, “Synthetic biochemistry molecular purge valve module that maintain co-factor balance” (The Regents of the University of California, priority 2014, dated 2025):

Key:
[1] = molecular target: T1, G. stearothermophilus pyruvate dehydrogenase complex (GsPDH-NAD+, PDH^NADH), wild type (E1a SEQ ID NO: 1, E1b SEQ ID NO: 2, E2 SEQ ID NO: 3, E3^NADH SEQ ID NO: (Geobacillus stearothermophilus, UniProt P11959)); test: PDH kinetics, monitoring the reduction of NAD(P)^+ at 340 nm; assay type: biochemical
T1 construct: made in house; host or cells: E. coli
Protocol: (§1) The individual domains of G. stearothermophilus PDH were partially purified from E. coli lysates by heat prior to modification and reconstitution of the PDH complex. E1αβ, E2, or E3 containing lysates were incubated at 65° C. for 35 minutes to heat denature E. coli proteins followed by centrifugation at 30,000×g for 20 min to pellet the precipitated proteins. […] Next, the E2 domain was lipoated in the heated extract by the addition of 1 mM (±)-α-lipoic acid, 2 mM ATP, 3 mM MgCl2, and 50 μg of purified 6×His-LplA. The lipoation reaction was then allowed to proceed with gentle mixing overnight at 25° C., yielding lipoated E2 (E2lip). After lipoation, E1αβ, E2lip, and E3 were mixed in a 3:1:3 molar ratio and incubated for at least 1 hour at 25° C. to form the active GsPDH complex. The GsPDH complex was then isolated by ultracentrifugation (Beckman) for 4 hours at 95,000×g. […] The reconstituted complex was stored at 4° C. until use.

[2] = molecular target: T2, L. lactis NADH oxidase (H2O forming), NoxE, SEQ ID NO: 10 (Lactococcus lactis, UniProt Q9CIG9); test: NoxE kinetics, monitoring the oxidation of NAD(P)H at 340 nm; assay type: biochemical
T2 sequence (Q9CIG9 1-446): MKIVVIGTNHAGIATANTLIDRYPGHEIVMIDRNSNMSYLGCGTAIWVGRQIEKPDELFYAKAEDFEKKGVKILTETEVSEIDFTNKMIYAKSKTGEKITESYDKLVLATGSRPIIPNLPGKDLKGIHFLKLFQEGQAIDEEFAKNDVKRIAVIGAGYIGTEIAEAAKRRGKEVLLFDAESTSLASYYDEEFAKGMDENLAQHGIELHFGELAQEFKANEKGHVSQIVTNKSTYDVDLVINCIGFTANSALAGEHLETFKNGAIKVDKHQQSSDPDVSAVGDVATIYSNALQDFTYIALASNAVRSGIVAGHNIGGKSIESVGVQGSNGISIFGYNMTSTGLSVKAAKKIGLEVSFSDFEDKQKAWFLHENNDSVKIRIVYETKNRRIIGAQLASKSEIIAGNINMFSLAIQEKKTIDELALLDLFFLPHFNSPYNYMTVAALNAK

[3] = molecular target: T3, G. stearothermophilus pyruvate dehydrogenase complex, engineered mutant (GsPDH-NADP, PDH^NADPH), E3 mutant E206V, G207R, A208K, S213R (E3^NADPH SEQ ID NO: 7); E1 (Geobacillus stearothermophilus, UniProt P11959, A208K/E206V/G188A/G192A/G207R/S213R); test: PDH kinetics, monitoring the reduction of NAD(P)^+ at 340 nm; assay type: biochemical
T3 construct: made in house; host or cells: E. coli
Protocol: as §1

[4] = substrate: NC(=O)c1ccc[n+]([C@@H]2O[C@H](COP(=O)(O)OP(=O)(O)OC[C@H]3O[C@@H](n4cnc5c(N)ncnc54)[C@H](OP(=O)(O)O)[C@@H]3O)[C@@H](O)[C@H]2O)c1; test: as above; assay type: biochemical, G. stearothermophilus; settings: other: 50 mM Tris pH 7.5, 5 mM MgCl2, 5 mM pyruvate, 1 mM CoA, 0.5 mM NAD(P)+
[5] = substrate: NC(=O)c1ccc[n+]([C@@H]2O[C@H](COP(=O)(O)OP(=O)(O)OC[C@H]3O[C@@H](n4cnc5c(N)ncnc54)[C@H](O)[C@@H]3O)[C@@H](O)[C@H]2O)c1; test: as above; assay type: biochemical, G. stearothermophilus; settings: other: 50 mM Tris pH 7.5, 5 mM MgCl2, 5 mM pyruvate, 1 mM CoA, 0.5 mM NAD(P)+
[6] = substrate: NC(=O)C1=CN([C@@H]2O[C@H](COP(=O)(O)OP(=O)(O)OC[C@H]3O[C@@H](n4cnc5c(N)ncnc54)[C@H](OP(=O)(O)O)[C@@H]3O)[C@@H](O)[C@H]2O)C=CC1; test: purified protein, by the assay type; settings: other: 100 mM tris-HCl pH 7.5, 5 mM MgCl2, 5 mM KCl, 0.2 mM NAD(P)H
[7] = substrate: NC(=O)C1=CN([C@@H]2O[C@H](COP(=O)(O)OP(=O)(O)OC[C@H]3O[C@@H](n4cnc5c(N)ncnc54)[C@H](O)[C@@H]3O)[C@@H](O)[C@H]2O)C=CC1; test: purified protein, by the assay type; settings: other: 100 mM tris-HCl pH 7.5, 5 mM MgCl2, 5 mM KCl, 0.2 mM NAD(P)H
[8] = substrate: NC(=O)c1ccc[n+]([C@@H]2O[C@H](COP(=O)(O)OP(=O)(O)OC[C@H]3O[C@@H](n4cnc5c(N)ncnc54)[C@H](OP(=O)(O)O)[C@@H]3O)[C@@H](O)[C@H]2O)c1; test: cells, lysate or membranes named; settings: other: 50 mM Tris pH 7.5, 5 mM MgCl2, 5 mM pyruvate, 1 mM CoA, 0.5 mM NAD(P)+
[9] = substrate: NC(=O)c1ccc[n+]([C@@H]2O[C@H](COP(=O)(O)OP(=O)(O)OC[C@H]3O[C@@H](n4cnc5c(N)ncnc54)[C@H](O)[C@@H]3O)[C@@H](O)[C@H]2O)c1; test: cells, lysate or membranes named; settings: other: 50 mM Tris pH 7.5, 5 mM MgCl2, 5 mM pyruvate, 1 mM CoA, 0.5 mM NAD(P)+

What does the source list for `NC(=O)c1ccc[n+]([C@@H]2O[C@H](COP(=O)(O)OP(=O)(O)OC[C@H]3O[C@@H](n4cnc5c(N)ncnc54)[C@H](O)[C@@H]3O)[C@@H](O)[C@H]2O)c1` [NAD+, nicotinamide adenine dinucleotide]?
kcat ratio, NAD^+ vs NADP^+ ([1]; kcat higher with NAD^+ than NADP^+): 11.2 times; kcat/Km ratio, NAD^+ vs NADP^+ ([1]; kcat/Km higher with NAD^+ than NADP^+): 1150 times

`NC(=O)C1=CN([C@@H]2O[C@H](COP(=O)(O)OP(=O)(O)OC[C@H]3O[C@@H](n4cnc5c(N)ncnc54)[C@H](O)[C@@H]3O)[C@@H](O)[C@H]2O)C=CC1` [NADH] was tested. Which “Kcat ratio, NADH vs NADPH” value ([2]; Kcat greater with NADH than NADPH) did it give?
Its value is 248.8 times.

What about the “kcat/Km ratio, NADH vs NADPH” value ([2]; kcat/Km greater with NADH than NADPH) of the same molecule?
Its value is 9900 times.

For `NC(=O)c1ccc[n+]([C@@H]2O[C@H](COP(=O)(O)OP(=O)(O)OC[C@H]3O[C@@H](n4cnc5c(N)ncnc54)[C@H](OP(=O)(O)O)[C@@H]3O)[C@@H](O)[C@H]2O)c1` [NADP+], which “kcat ratio, NADP^+ vs NAD+” value ([3]; kcat higher with NADP^+ than NAD+) is on record?
Its value is 7.3 times.

And the “kcat/Km ratio, NADP^+ vs NAD+” value ([3]; kcat/Km higher with NADP^+ than NAD+)?
The value was 21 times.

B1: G. stearothermophilus pyruvate dehydrogenase complex, engineered mutant (GsPDH-NADP, PDH^NADPH), E3 mutant E206V, G207R, A208K, S213R (E3^NADPH SEQ ID NO: 7; … (protein)
chain: MVVGDFAIETETLVVGAGPGGYVAAIRAAQLGQKVTIVEKGNLGGVCLNVGCIPSKALISASHRYEQAKHSEEMGIKAENVTIDFAKVQEWKASVVKKLTGGVEGLLKGNKVEIVKGEAYFVDANTVRVVNGDSAQTYTFKNAIIATGSRPIELPNFKFSNRILDSTGALNLGEVPKSLVVIGGGYIAIELATAYANFGTKVTILVRKGEILRGFEKQMAAIIKKRLKKKGVEVVTNALAKGAEEREDGVTVTYEANGETKTIDADYVLVTVGRRPNTDELGLEQIGIKMTNRGLIEVDQQCRTSVPNIFAIGDIVPGPALAHKASYEGKVAAEAIAGHPSAVDYVAIPAVVFSDPECASVGYFEQQAKDEGIDVIAAKFPFAANGRALALNDTDGFLKLVVRKEDGVIIGAQIIGPNASDMIAELGLAIEAGMTAEDIALTIHAHPTLGEIAMEAAEVALGTPIHIITK
notes: made in house; host or cells: E. coli
With B1 as the molecule, how does the Km [4] read?
Its Km is 0.157 ± 0.013 mM.

And the Km [5]?
Its Km is 0.4527 ± 0.178 mM.

B2: L. lactis NADH oxidase (H2O forming), NoxE, SEQ ID NO: 10 (Lactococcus lactis subsp. lactis Il1403) (protein)
chain: MKIVVIGTNHAGIATANTLIDRYPGHEIVMIDRNSNMSYLGCGTAIWVGRQIEKPDELFYAKAEDFEKKGVKILTETEVSEIDFTNKMIYAKSKTGEKITESYDKLVLATGSRPIIPNLPGKDLKGIHFLKLFQEGQAIDEEFAKNDVKRIAVIGAGYIGTEIAEAAKRRGKEVLLFDAESTSLASYYDEEFAKGMDENLAQHGIELHFGELAQEFKANEKGHVSQIVTNKSTYDVDLVINCIGFTANSALAGEHLETFKNGAIKVDKHQQSSDPDVSAVGDVATIYSNALQDFTYIALASNAVRSGIVAGHNIGGKSIESVGVQGSNGISIFGYNMTSTGLSVKAAKKIGLEVSFSDFEDKQKAWFLHENNDSVKIRIVYETKNRRIIGAQLASKSEIIAGNINMFSLAIQEKKTIDELALLDLFFLPHFNSPYNYMTVAALNAK
B2 was tested. Which Km [6] did it give?
Its Km is 2.9515 ± 0.77 mM.

And the Km [7]?
The Km was 0.07493 ± 0.026 mM.

B3: G. stearothermophilus pyruvate dehydrogenase complex (GsPDH-NAD+, PDH^NADH), wild type (E1a SEQ ID NO: 1, E1b SEQ ID NO: 2, E2 SEQ ID NO: 3, E3^NADH SEQ ID NO: … (protein)
chain: MVVGDFAIETETLVVGAGPGGYVAAIRAAQLGQKVTIVEKGNLGGVCLNVGCIPSKALISASHRYEQAKHSEEMGIKAENVTIDFAKVQEWKASVVKKLTGGVEGLLKGNKVEIVKGEAYFVDANTVRVVNGDSAQTYTFKNAIIATGSRPIELPNFKFSNRILDSTGALNLGEVPKSLVVIGGGYIGIELGTAYANFGTKVTILEGAGEILSGFEKQMAAIIKKRLKKKGVEVVTNALAKGAEEREDGVTVTYEANGETKTIDADYVLVTVGRRPNTDELGLEQIGIKMTNRGLIEVDQQCRTSVPNIFAIGDIVPGPALAHKASYEGKVAAEAIAGHPSAVDYVAIPAVVFSDPECASVGYFEQQAKDEGIDVIAAKFPFAANGRALALNDTDGFLKLVVRKEDGVIIGAQIIGPNASDMIAELGLAIEAGMTAEDIALTIHAHPTLGEIAMEAAEVALGTPIHIITK
What does the source list for B3?
Km [8]: 1.381 ± 0.41 mM; Km [9]: 0.01338 ± 0.00083 mM
